Experimental data published in patent publication US12503451B2, “2-arylthiazole derivative or salt thereof, preparation method therefor, and pharmaceutical composition comprising same” (HEXAPHARMATEC CO., LTD., priority 2020, dated 2025).
Counter-ions that a name gives are not always drawn. Like-named read-outs stand apart in the source and are kept apart here.

Legend:
N2a cells [1] = assay: Inhibitory activities against mitochondrial damage by rotenone (XF Cell Mito Stress Test); type: cell-based, mouse; settings: 5 μM + 10 μM rotenone
Experimental: The inhibitory activities of the compounds of the present invention against mitochondrial damage by rotenone, known as the major cytotoxic substance in neurodegenerative diseases, were analyzed in N2a cells (ATCC, CCL-131, mouse neuroblastoma cell line). Specifically, N2a cells (3×10^4 cells) and a medium (DMEM (Dulbecco's modified Eagle's medium, Gibco, 11995-065) supplemented with 5% heat-inactivated fetal bovine serum (FBS; Gibco, 16000-044) and 50 μg/ml penicillin-streptomycin (Gibco, 15140-122) were added to each well of a XF24-well culture plate and then incubated overnight at 37° C. in a CO2 incubator. The cells were treated with the compound of Example 10 (5 μM), treated with 10 μM of rotenone after 30 minutes therefrom, and then incubated at 37° C. in a CO2 incubator for 24 hours. After the treatment with a XF Cell Mito Stress Test Kit (Seahorse Bioscience, 103015-100) according to the manufacturer's instructions, the level of mitochondrial respiration was measured, using an XF24 Extracellular Flux Analyzer (Seahorse Bioscience). Four wells were tested for each group; and the basal respiration, the ATP production, the maximal respiration, and the spare respiratory capacity were measured. The levels of each mitochondrial respiration were normalized by the protein quantification value. The basal respiration of the untreated control group was set to 100% and the remaining values are shown. In Table 10, the control group represents a group treated with only 10 μM of rotenone.

N2a cells [2] = assay: Inhibitory activity against neuronal apoptosis by beta amyloid (CCK-8), N2a cells; type: cell-based, mouse; settings: for viability at 5 µM: Mus musculus, N2a, read-out: Cell viability (%) (N2a cells); for Inhibition of cytotoxicity caused by beta amyloid treatment (in words): Table 9: N2a cells 5 μM and neuron cells 500 nM
Experimental: (§1) The inhibitory activities of the compounds of the present invention against neuronal apoptosis by beta amyloid, known as the major cytotoxic substance in neurodegenerative diseases, were analyzed in N2a cells (ATCC, CCL-131, mouse neuroblastoma cell line) and neuron cells (primary mouse cortical neuron cells) isolated in the same manners as in Test Example 2. The media used in Test Example 3 and Test Example 2 were used as a medium for the N2a cells and as a medium for the neuron cells, respectively. Specifically, N2a cells (3×10^4 cells) and neuron cells (8×10^4 cells), along with the respective media, were added to each well of a 96-well plate and then incubated overnight at 37° C. in a CO2 incubator. The cells were treated with the compound of Example 10 and the compound of Example 29 at the concentrations of 5 μM and 500 nM, respectively, treated with 20 μM of beta amyloid after 30 minutes therefrom, and then incubated at 37° C. in a CO2 incubator for 72 hours. The cells were treated with 10 μL of CCK-8 reagent (Enzo Life Science, ALX-850-039-KI02) and then incubated at 37° C. in a CO2 incubator for 2 hours. Three wells were tested for each group and each absorbance was measured at 450 nm. The absorbance value of the untreated control group was set to 100% cell viability. The cell viability of each group was calculated from the respective absorbance values.

[3] = test system: primary mouse cortical neuron cells; assay: Inhibitory activity against neuronal apoptosis by beta amyloid (CCK-8), neuron cells; type: cell-based; settings: Cortical neurone, read-out: Cell viability (%) (Neuron cells)
Experimental: as §1

[4] = test system: primary mouse cortical neuron cells; assay: Autophagic vesicle formation (CYTO-ID Autophagy Detection Kit); type: cell-based; settings: for Cyto-ID fluorescence value (relative intensity): 5 μM, 24 hours, untreated control = 1; for Autophagic vesicle formation compared to rapamycin (in words): at ½ concentration of rapamycin (5 μM vs 10 μM)
Experimental: Autophagy lysosomal pathway (ALP) activation by the compounds of the present invention was verified, through measuring the degree of autophagic vesicle formation in neuron cells with the CYTO-ID™ Autophagy Detection Kit (ENZ-51031-K200, Enzo Life Sciences, Inc.). Neuron cells (i.e., primary mouse cortical neuron cells) were isolated from mice using an enzymatic digest method. Specifically, primary mouse cortical neuron cells were isolated by incubating the cortice tissues derived from 16 day embryonic C57BL6 mice, at 37° C. for 30 minutes, with 20 U/ml papain (Worthington Biochemical Corporation, LK003176) and 0.005% DNase I (Worthington Biochemical Corporation, LK003170).
The primary mouse cortical neuron cells (8×10^4 cells) and a medium (a neural cell culture media containing 2 mM L-glutamine (Gibco, 25030-081), N2 supplement (Gibco, 17502-048), B27 supplement (Gibco, 17504-044), and 50 μg/ml penicillin-streptomycin (Gibco, 15140-122)) were added to each well of a 96-well plate and then incubated overnight at 37° C. in a CO2 incubator. The compound of Example 10 (5 μM), the compound of Example 29 (5 μM), and rapamycin (10 μM) were respectively treated to the cells, which were incubated at 37° C. in a CO2 incubator for 24 hours. After each well was washed with 1×Assay Buffer (Enzo Life Science, ENZ-51031-K200), 0.2 μl of Cyto-ID autophagy dye and 0.1 μl of Hoechst 33342 were treated to the cells, which were incubated at 37° C. in a CO2 incubator for 30 minutes. After each well was washed with 1×Assay Buffer (Enzo Life Science, ENZ-51031-K200), the fluorescence values of Cyto-ID (EX: 480 nm, EM: 530 nm) and Hoechst 33342 (EX: 340 nm, EM: 480 nm) were respectively measured with a fluorometer. Three wells were tested for each group. After normalization was carried out through dividing the Cyto-ID fluorescence value of each well by Hoechst 33342 fluorescence value, each relative intensity was calculated by setting that of the untreated control to 1.

N2a cells [5] = assay: Autophagy flux by electron microscope imaging; type: cell-based, mouse
Experimental: N2a cells (ATCC, CCL-131, mouse neuroblastoma cell line) (3×10^4 cells) and a medium (DMEM (Dulbecco's modified Eagle's medium, Gibco, 11995-065) supplemented with 5% heat-inactivated fetal bovine serum, FBS; Gibco, 16000-044) and 50 μg/ml penicillin-streptomycin (Gibco, 15140-122) were added to each well of a 6-well plate and incubated overnight at 37° C. in a CO2 incubator. The compound of Example 29 (5 μM) and rapamycin (10 μM) were respectively treated and then incubated at 37° C. in a CO2 incubator for 24 hours. Three wells per each group were subject to electron microscope block formation and then pre-fixation, post-fixation, dehydration, substitution, and embedding were carried out according to a flat-embedding method. After ultra-thin sections having a thickness of 70 nm were prepared, heavy metal staining (uranyl acetate, lead citrate) was carried out on the each section, which was photographed through a mosaic imaging technique for imaging the entire cells. In addition, the results obtained by measuring the numbers of the total autophagies (autophagic vesicles), autophagosomes, and autolysosomes per cell according to the treatment groups are shown in Table 3 below. In Table 3 below, the control means the untreated control.

[6] = test system: dimethylnitrosamine (DMN)-induced liver injury male SD rats; assay: Liver function-improving activities by oral administration in the liver injury model (2); type: in vivo, rat
Experimental: Specifically, 7-week-old male SD rats (Orient Bio, Korea) were accommodated to the laboratory environment at room temperature for 7 days. General symptoms were observed and then only healthy animals were used for the experiment. The rats were divided into 5 groups (n=10 for each group), i.e., the normal control group, the group to which only DMN is administered, and the group to which both the compound of the present invention (the compound of Example 23, 26, or 29) and DMN are administered. DMN was dissolved in purified water and then administered intraperitoneally at the dose of 10 mg/kg for 3 consecutive days per week (3 times per week, for 4 weeks). Blood samples were collected after the completion of the fourth-week liver injury inducement and then the serum ALT (Alanine Transaminase) values and the serum AST (Aspartate Transaminase) values were measured so as to confirm the liver injury thereof. […] Blood samples were collected on Day 0 (1 day after the completion of the fourth-week liver injury inducement) and Day 7, 14, 21 and 28 after the administration of the test materials. The collected blood was injected into a vacutainer tube containing a clot activator and then allowed to stand at room temperature for about 20 minutes so as to coagulate each blood sample. After centrifugation for 10 minutes, the resulting serums were subjected to blood-biochemical tests. In addition, at 24 hours after the last administration, an autopsy for hepatectomy and fixation was performed to prepare the tissue specimens thereof. After preparing the slides with the tissue specimens, hematoxylin and eosin (H&E) staining was performed thereon for microscopic observation of damages to liver tissue and inflammatory cell infiltrations in liver tissues. In addition, Masson's trichrome staining was also performed thereon for microscopic observation of collagen fiber depositions in liver tissues. The results obtained from the measurements were subject to group comparison, through parametric multiple comparisons or non-parametric multiple comparisons, with SPSS. When P<0.05, it was determined to be statistically significant. […] Therefore, it can be confirmed that the compounds of the present invention have excellent treating activity against liver fibrosis. […] From the results of FIG. 4, the degrees of damage to liver tissue and inflammatory cell infiltration in liver tissues were measured. And also, from the results of FIG. 4, the degree of collagen fiber deposition in liver tissues was measured.

[7] = 24 hours, basal respiration of untreated control = 100%
[8] = 0 week (Day 0, after 4 weeks DMN, before administration)
[9] = 1 week, 25 mg/kg oral once a day after 4 weeks DMN
[10] = 2 weeks, 25 mg/kg oral once a day after 4 weeks DMN
[11] = 3 weeks, 25 mg/kg oral once a day after 4 weeks DMN
[12] = 4 weeks, 25 mg/kg oral once a day after 4 weeks DMN

Cc1nc(-c2ccc(OCC(C)C)c(C#N)c2)sc1C(=O)NCC1(N(C)C)CCOCC1 [Example 10, N-((4-(dimethylamino)tetrahydro-2H-pyran-4-yl)methyl)-2-(3-cyano-4-isobutoxyphenyl)-4-methylthiazole-5-carboxamide hydrochloride]
Recovery of mitochondrial damage by rotenone treatment (in words) (N2a cells [1]): recovers the mitochondrial damage by rotenone treatment in a statistically significant level
Mitochondrial respiration (%): ATP production (N2a cells [1]; [7]): 31.65%
Mitochondrial respiration (%): Basal (N2a cells [1]; [7]): 51.69%
Mitochondrial respiration (%): Maximal (N2a cells [1]; [7]): 62.28%
Mitochondrial respiration (%): Spare (N2a cells [1]; [7]): 16.33%
viability at 5 µM (N2a cells [2]; 5 μM, 20 μM beta amyloid, 72 hours, untreated control = 100%): 68.9%
Inhibition of cytotoxicity caused by beta amyloid treatment (in words) (N2a cells [2]): significantly inhibit the cytotoxicity caused by beta amyloid treatment
viability at 0.5 µM ([3]; 500 nM, 20 μM beta amyloid, 72 hours, untreated control = 100%): 52.2%
Cyto-ID fluorescence value (relative intensity) [4]: 1.813
Autophagic vesicle formation compared to rapamycin (in words) [4]: significantly increase autophagic vesicle formation

CCN(CC)CCOc1ccc(-c2nc(C)c(C(=O)NCC3(N(C)C)CCOCC3)s2)cc1C#N.Cl.Cl [Example 29, N-((4-(dimethylamino)tetrahydro-2H-pyran-4-yl)methyl)-2-(4-(2-diethylamino)ethoxy-3-cyanophenyl)-4-methylthiazole-5-carboxamide hydrochloride]
Numbers of the autophagy per cell: Autolysosome (N2a cells [5]; 5 μM, 24 hours): 14.9
Numbers of the autophagy per cell: Autophagic vesicles (N2a cells [5]; 5 μM, 24 hours): 22.3
Numbers of the autophagy per cell: Autophagosome (N2a cells [5]; 5 μM, 24 hours): 6.9
Autophagic vesicle and autolysosome formation compared to rapamycin (in words) (N2a cells [5]; at ½ concentration of rapamycin (5 μM vs 10 μM)): significantly increase autophagic vesicle formation, especially autolysosome formation
viability at 5 µM (N2a cells [2]; 72 h): 68.5%
Inhibition of cytotoxicity caused by beta amyloid treatment (in words) (N2a cells [2]): significantly inhibit the cytotoxicity caused by beta amyloid treatment
viability at 0.5 µM ([3]; 72 h): 53.3%
ALT values (average value) [6, 8]: 219.29 U/L
AST values (average value) [6, 8]: 376.67 U/L
ALT values (average value) [6, 9]: 99.31 U/L
AST values (average value) [6, 9]: 164.60 U/L
ALT values (average value) [6, 10]: 66.57 U/L
AST values (average value) [6, 10]: 143.87 U/L
ALT values (average value) [6, 11]: 53.03 U/L
AST values (average value) [6, 11]: 127.65 U/L
ALT values (average value) [6, 12]: 52.97 U/L
AST values (average value) [6, 12]: 123.33 U/L
Cyto-ID fluorescence value (relative intensity) [4]: 2.171
Autophagic vesicle formation compared to rapamycin (in words) [4]: significantly increase autophagic vesicle formation
